Test results reported in patent US20100016421A1, “METHODS FOR DETERMINING SENSITIVITY TO AMINOFLAVONES” (priority 2008, published 2010).
Read-outs that look alike come from different tables or passages of the source.

Columns and labels:
[1] = test system: SKBR3; assay: MTT assay, SKBR3 breast cancer cell line; format: cell-based; conditions: Homo sapiens, SK-BR-3; SKBR3, mean of three independent MTT experiments; read-out: AF IC50
Protocol: (§1) The inhibitory concentration 50% were determined by MTT assay and following the NCI DTP in vitro testing procedures (http://dtp.nci.nih.gov/branches/btb/ivclsp.html). Three independent MTT in vitro tumor cell growth inhibition experiments were conducted and a mean IC50 value generated as shown in Table 4.

[2] = test system: ER-negative, or “triple-negative,” or basal B breast cancer cell lines; assay: Sensitivity to aminoflavone after HDAC inhibitor pre-treatment; format: cell-based; conditions: Homo sapiens
[3] = test system: HCC1937; assay: MTT assay, HCC1937 breast cancer cell line; format: cell-based; conditions: Homo sapiens
Description: (§2) AhR localization correlates with cytotoxic activity of AFP464, as discussed above. […] The growth curves for all three cell lines resulting from 5 day continuous exposure of the cells to AFP464 in 96-well plates and the detection of cell growth by conversion of methyltetrazolium into formazan by viable cells (MTT assay) are shown. All cell lines in FIG. 3 have defects in the BRCA tumor suppressor genes responsible for very aggressive forms of hereditary breast and ovarian cancer. MX-1 have BRCA1 deletions and BRCA2 mutations, HCC1937 are BRCA1 mutant and completely defective, IGROV1 are defective for BRCA2 (±).
as §1

[4] = test system: SKBR3, T47D, MCF-7, MCF-7 Tam1, and MCF-7 Her2-18 cell lines; assay: MTT assay, luminal type cell lines (summary); format: cell-based; conditions: Homo sapiens; range over luminal type cell lines; read-out: AF IC50 concentrations
Protocol: as §1
(§3) The SKBR3, T47D, MCF-7, MCF-7 Tam1, and MCF-7 Her2-18 cell lines are all of a luminal type gene cluster. […] Based on previous NCI cell line screen results discussed above, ER-negative tumors were thought to be resistant to aminoflavone. […] Thus, the gene profile relating to ER status alone may not predict the sensitivity of the tumor to treatment with AF. AFP464 is not only effective in ER-positive breast cancer cells, which are always of luminal type histologies, but are also effective in the basal A subtype of ER-negative breast cancers.

[5] = test system: MDA-MB-231; assay: MTT assay, MDA-MB-231 breast cancer cell line; format: cell-based, human; conditions: for IC50: Homo sapiens
Protocol: (§4) The breast cancer cell lines shown in Table 2 were screened to determine the localization of the aryl hydrocarbon receptor (AhR) in accordance with the techniques discussed above. MTT assays were conducted to measure cell death on various breast cancer cell lines.
as §1

[6] = test system: MCF10A; assay: MTT assay, MCF10A normal breast cell line; format: cell-based, human; conditions: for IC50: Homo sapiens, MCF-10A
Protocol: as §4, §1

[7] = test system: MCF-7 TAM1; assay: MTT assay, MCF-7 TAM1 cell line; format: cell-based, human; conditions: for IC50: Homo sapiens, MCF7:TAM1
Protocol: as §4, §1

[8] = test system: MDA-MB-468; assay: MTT assay, MDA-MB-468 breast cancer cell line; format: cell-based; conditions: Homo sapiens; MDA-MB-468, mean of three independent MTT experiments; read-out: AF IC50
Protocol: as §1

[9] = test system: MCF-7 HER2-18; assay: MTT assay, MCF-7 HER2-18 cell line; format: cell-based, human; conditions: for IC50: Homo sapiens
Protocol: as §4, §1

[10] = test system: Hs578t; assay: MTT assay, Hs578t breast cancer cell line; format: cell-based, human
Protocol: as §1

[11] = test system: HCC1937, BT 20, MDA-MB-468, and SKBR3 ER-negative tumor cells; assay: MTT assay, sensitive ER-negative cell lines (summary); format: cell-based; conditions: Homo sapiens; range over sensitive ER-negative cell lines; read-out: AF IC50 concentrations
Protocol: as §1, §3

[12] = test system: MCF-7; assay: MTT assay, MCF-7 breast cancer cell line; format: cell-based, human; conditions: for IC50: Homo sapiens, MCF7
Protocol: as §4, §1

[13] = test system: T47D; assay: MTT assay, T47D breast cancer cell line; format: cell-based, human; conditions: for IC50: Homo sapiens
Protocol: as §4, §1

[14] = test system: BT 20; assay: MTT assay, BT 20 breast cancer cell line; format: cell-based; conditions: Homo sapiens; BT 20, mean of three independent MTT experiments; read-out: AF IC50
Protocol: as §1

[15] = test system: γ-H2AX foci in T47D; assay: Immunofluorescence of phosphorylated γ-H2AX, T47D; format: cell-based, human
Description: (§5) The phosphorylated γ-H2AX is an indicator of a DNA-damage response in cells.

[16] = test system: ADDP; assay: Cytotoxicity, ADDP ovarian cancer cell line; format: cell-based; conditions: Homo sapiens
Description: (§6) Similarly, the ovarian cancer cell lines shown in Table 3 were screened to determine the localization of the Aryl hydrocarbon receptor (AhR). As shown below, and further illustrated in FIGS. 2 and 3, all cell lines where the AhR is localized predominantly in the cytoplasm (e.g. OVCAR-3 and IGROV-1) were more sensitive to treatment with AFP464 than tumor cells where the AhR is localized predominantly in the nucleus (e.g., OVCAR-8).

[17] = test system: CYP1A1; assay: Real time PCR of CYP1A1 expression, MDA-MB-231
[18] = Maximum tolerated dose; conditions: mouse, in vivo, iv; intravenously
Protocol: Next, the treatment and data evaluation will be discussed. […] The maximum tolerated dose (MTD) for AFP464 was determined prior to initiation of the experiment as 75 mg/kg/d intravenously. […]. […] AFP464 was given on days 1, 3, 5, 15, 17, and 19.

[19] = test system: MX-1; assay: MTT assay, MX-1 triple negative breast cancer cell line; format: cell-based; conditions: Homo sapiens, MX1, 120 h, MX-1, 5 day continuous exposure
Description: as §2

[20] = test system: A2780; assay: Cytotoxicity, A2780 ovarian cancer cell line; format: cell-based; conditions: Homo sapiens
Description: as §6

[21] = test system: CYP1B1; assay: Real time PCR of CYP1B1 expression, MDA-MB-231
[22] = test system: γ-H2AX foci in MCF-7 TAM1; assay: Immunofluorescence of phosphorylated γ-H2AX, MCF-7 TAM1; format: cell-based, human
Description: as §5

[23] = test system: IGROV-1; assay: Cytotoxicity (MTT), IGROV-1 ovarian cancer cell line; format: cell-based; conditions: Homo sapiens
Description: as §6, §2

[24] = test system: OVCAR-8; assay: Cytotoxicity, OVCAR-8 ovarian cancer cell line; format: cell-based; conditions: Homo sapiens
Description: as §6

[25] = test system: γ-H2AX foci in MCF10a; assay: Immunofluorescence of phosphorylated γ-H2AX, MCF10a; format: cell-based, human
Description: as §5

[26] = test system: ER-positive cell lines; conditions: NCI 60 screen, read-out: sensitivity (order of magnitude); cited from earlier work
[27] = test system: γ-H2AX foci in MDA-MB-231; assay: Immunofluorescence of phosphorylated γ-H2AX, MDA-MB-231; format: cell-based, human
Description: as §5

[28] = test system: AG6000; assay: Cytotoxicity, AG6000 ovarian cancer cell line; format: cell-based; conditions: Homo sapiens
Description: as §6

[29] = test system: γ-H2AX foci in MCF-7; assay: Immunofluorescence of phosphorylated γ-H2AX, MCF-7; format: cell-based, human
Description: as §5

[30] = test system: human tumor xenograft MDA-MB-231; assay: MDA-MB-231 subcutaneous xenograft in nude mice
[31] = test system: γ-H2AX foci in MCF-7 HER2-18; assay: Immunofluorescence of phosphorylated γ-H2AX, MCF-7 HER2-18; format: cell-based, human
Description: as §5

[32] = test system: OVCAR-3; assay: Cytotoxicity, OVCAR-3 ovarian cancer cell line; format: cell-based; conditions: Homo sapiens
Description: as §6

[33] = in mice; cited from earlier work
[34] = test system: ERα in MDA-MB-231; assay: Western blot of ERα induction, MDA-MB-231; format: cell-based, human; conditions: MDA-MB-231, 60 hours at […] and 13.5 μM
Protocol: Lane 1 of each of FIGS. 4A and 4B is a control in which the respective cells were treated with DMSO.

[35] = mean of three independent MTT experiments, read-out: AF IC50
[36] = MDA-MB-231, SAHA for 48 hours followed by AFP464 for 6 hours
[37] = MDA-MB-231, SAHA for 48 hours followed by AFP464 for 24 hours

Cc1c(F)c(N)c2c(=O)cc(-c3ccc(N)c(F)c3)oc2c1F [AF, aminoflavone]
IC50 [1]: 16 nM
IC50 [2]: ~1000 nM
IC50 ([3]; HCC1937, mean of three independent MTT experiments, read-out: AF IC50): 10 nM
IC50 [4]: 16 to 20 nM
IC50 ([5]; MDA-MB-231, mean of three independent MTT experiments, read-out: AF IC50): 25000 nM
IC50 [6, 35]: 3000 nM
IC50 ([7]; MCF-7 Tam1, mean of three independent MTT experiments, read-out: AF IC50): 25 nM
IC50 [8]: 12 nM
IC50 ([9]; MCF-7 Her2-18, mean of three independent MTT experiments, read-out: AF IC50): 20 nM
IC50 ([10]; Homo sapiens, Hs-578T, Hs578t, mean of three independent MTT experiments, read-out: AF IC50): 20000 nM
IC50 [11]: 10 to 20 nM
IC50 ([12]; MCF-7, mean of three independent MTT experiments, read-out: AF IC50): 16 nM
IC50 [13, 35]: 14 nM
IC50 [14]: 20 nM

Cc1c(F)c(N)c2c(=O)cc(-c3ccc(NC(=O)[C@@H](N)CCCCN)c(F)c3)oc2c1F [AFP464]
γ-H2AX Foci [15]: yes
IC50 [16]: 2500 nM
expression of RNA for CYP1A1 [17, 36]: increased expression
expression of RNA for CYP1A1 [17, 37]: little expression
MTD [18]: 75 mg/kg/day
IC50 [19]: 30000 nM
IC50 [20]: 5000 nM
expression of RNA for CYP1B1 [21, 36]: increased expression
expression of RNA for CYP1B1 [21, 37]: little expression
γ-H2AX Foci [22]: yes
IC50 ([3]; 120 h, HCC1937, 5 day continuous exposure, MTT, read-out: IC50): 10 to 200 nM
IC50 ([23]; IGROV-1): 420 nM
IC50 ([23]; IGROV-1, 120 h, IGROV1, 5 day continuous exposure, MTT): 10 to 200 nM
IC50 [24]: 13000 nM
γ-H2AX Foci [25]: no
IC50 ([5]; MDA-MB-231, MTT, read-out: IC50): 25000 nM
IC100 ([5]; MDA-MB-231, MTT): >100 µM
IC50 ([6]; MTT, read-out: IC50): 3000 nM
IC100 ([6]; MTT): 9 µM
IC50 ([7]; MCF-7 TAM1, MTT, read-out: IC50): 25 nM
IC100 ([7]; MCF-7 TAM1, MTT): 200 nM
IC50 [26]: ~10 nM
γ-H2AX Foci [27]: no
IC50 ([9]; MCF-7 HER2-18, MTT, read-out: IC50): 20 nM
IC100 ([9]; MCF-7 HER2-18, MTT): 375 nM
IC50 [28]: > 10000 nM
γ-H2AX Foci [29]: yes
% Growth Inhibition [d29] ([30]; AFP464 35 mg/kg i.v. Day 1, 3, 5, 15, 17, 19): 23%
Opt. Test/Control % [d] ([30]; AFP464 35 mg/kg i.v. Day 1, 3, 5, 15, 17, 19, optimum d26): 77 [d26] %
% Growth Inhibition [d29] ([30]; AFP464 70 mg/kg i.v. Day 1, 3, 5, 15): 15%
Opt. Test/Control % [d] ([30]; AFP464 70 mg/kg i.v. Day 1, 3, 5, 15, optimum d28): 85 [d28] %
IC50 ([12]; MCF-7, MTT, read-out: IC50): 16 nM
IC100 ([12]; MCF-7, MTT): 300 nM
γ-H2AX Foci [31]: yes
IC50 ([13]; MTT, read-out: IC50): 14 nM
IC100 ([13]; MTT): 20 nM
IC50 [32]: 252 nM

O=C(CCCCCCC(=O)Nc1ccccc1)NO [SAHA, suberoylanilide hydroxamic acid, reference compound]
MTD [33]: 175 mg/kg/day
IC100 ([5]; SAHA in MDA-MB-231): 13.5 µM
ERα induction [34]: increases
IC100 ([10]; SAHA in Hs578T): 100 µM
Opt. Test/Control % [d] ([30]; Vorinostat 50 mg/kg p.o. Day −3 to −1, 12-14, optimum d26): 71 [d26] %
